Results from patent publication US6503881B2 (priority 1996, dated 2003).
In brackets after ≈: the same amount, converted by molar mass. Where two headings read alike, the source gives them in different places. Peptide text beside a SMILES is read from it.

Legend:
[1] = tested on: microorganisms with acquired resistance
bacterial isolates = settings: for FIC: Tobramycin + peptide
[2] = tested on: inherently resistant microorganisms
[3] = S. haemolyticus SH8463, pair Erythromycin / MBI 31
[4] = S. haemolyticus SH8472, pair Erythromycin / MBI 31
[5] = S. haemolyticus SH8564, pair Erythromycin / MBI 31
[6] = S. haemolyticus SH8575, pair Erythromycin / MBI 31
[7] = peptide + Tobramycin, S. maltophilia SMA029
[8] = peptide + Tobramycin, S. maltophilia SMA030
[9] = S. maltophilia SMA018, pair Amikacin / MBI 11B16CN
[10] = S. maltophilia SMA022, pair Amikacin / MBI 11B16CN

CC[C@H]1OC(=O)[C@H](C)[C@@H](O[C@H]2C[C@@](C)(OC)[C@@H](O)[C@H](C)O2)[C@H](C)[C@@H](O[C@@H]2O[C@H](C)C[C@H](N(C)C)[C@H]2O)[C@](C)(O)C[C@@H](C)C(=O)[C@H](C)[C@@H](O)[C@]1(C)O [Erythromycin, reference compound]
MIC comb. ([1]; S. aureus SA7609, pair Erythromycin / MBI 26): 0.5 µg/mL (≈ 0.681 µM)
MIC comb. ([1]; S. aureus SA7795, pair Erythromycin / MBI 26): 1 µg/mL (≈ 1.36 µM)
MIC comb. ([1]; S. aureus SA7795, pair Erythromycin / MBI 31): 4 µg/mL (≈ 5.45 µM)
MIC comb. ([1]; S. aureus SA7796, pair Erythromycin / MBI 26): 1 µg/mL (≈ 1.36 µM)
MIC comb. ([1]; S. aureus SA7796, pair Erythromycin / MBI 31): 2 µg/mL (≈ 2.73 µM)
MIC comb. ([1]; S. aureus SA7818, pair Erythromycin / MBI 31): 2 µg/mL (≈ 2.73 µM)
MIC comb. ([1]; S. epidermidis SE8410, pair Erythromycin / MBI 26): 0.5 µg/mL (≈ 0.681 µM)
MIC comb. ([1]; S. epidermidis SE8410, pair Erythromycin / MBI 31): 0.5 µg/mL (≈ 0.681 µM)
MIC comb. ([1]; S. epidermidis SE8411, pair Erythromycin / MBI 26): 0.5 µg/mL (≈ 0.681 µM)
MIC comb. ([1]; S. epidermidis SE8411, pair Erythromycin / MBI 31): 0.5 µg/mL (≈ 0.681 µM)
MIC comb. ([1]; S. epidermidis SE8503, pair Erythromycin / MBI 26): 0.5 µg/mL (≈ 0.681 µM)
MIC comb. ([1]; S. epidermidis SE8503, pair Erythromycin / MBI 31): 0.5 µg/mL (≈ 0.681 µM)
MIC comb. ([1]; S. epidermidis SE8565, pair Erythromycin / MBI 26): 0.5 µg/mL (≈ 0.681 µM)
MIC comb. ([1]; S. epidermidis SE8565, pair Erythromycin / MBI 31): 0.5 µg/mL (≈ 0.681 µM)
MIC comb. ([1]; S. haemolyticus SH8463, pair Erythromycin / MBI 26): 0.5 µg/mL (≈ 0.681 µM)
MIC comb. [1, 3]: 0.5 µg/mL (≈ 0.681 µM)
MIC comb. ([1]; S. haemolyticus SH8472, pair Erythromycin / MBI 26): 0.5 µg/mL (≈ 0.681 µM)
MIC comb. [1, 4]: 0.5 µg/mL (≈ 0.681 µM)
MIC comb. [1, 5]: 2 µg/mL (≈ 2.73 µM)
MIC comb. ([1]; S. haemolyticus SH8575, pair Erythromycin / MBI 26): 2 µg/mL (≈ 2.73 µM)
MIC comb. [1, 6]: 2 µg/mL (≈ 2.73 µM)
MIC comb. ([1]; S. haemolyticus SH8578, pair Erythromycin / MBI 26): 0.5 µg/mL (≈ 0.681 µM)
MIC comb. ([1]; S. haemolyticus SH8578, pair Erythromycin / MBI 31): 0.5 µg/mL (≈ 0.681 µM)
MIC comb. ([1]; S. haemolyticus SH8597, pair Erythromycin / MBI 26): 0.5 µg/mL (≈ 0.681 µM)

CC[C@H](C)[C@H](NC(=O)[C@H](CC(C)C)NC(=O)[C@H](C)NC(=O)[C@@H]1CCCN1C(=O)[C@H](CC(C)C)NC(=O)[C@H](C)NC(=O)[C@@H](NC(=O)[C@@H](NC(=O)[C@@H](NC(=O)[C@@H](NC(=O)[C@H](CCCCN)NC(=O)[C@H](CCCCN)NC(=O)[C@H](CC(C)C)NC(=O)[C@@H](NC(=O)[C@H](CCCCN)NC(=O)[C@@H](NC(=O)[C@H](CC(C)C)NC(=O)[C@H](CC(N)=O)NC(=O)[C@H](CCCCN)NC(=O)[C@@H](NC(=O)[C@H](Cc1ccccc1)NC(=O)[C@H](CO)NC(=O)[C@H](CCCCN)NC(=O)[C@H](Cc1c[nH]c2ccccc12)NC(=O)[C@@H](N)CCCCN)[C@@H](C)CC)[C@@H](C)O)C(C)C)C(C)C)C(C)C)[C@@H](C)O)[C@@H](C)O)C(=O)N[C@@H](CO)C(=O)O [MBI 29A2, KWKSFIKNLTKVLKKVVTTALPALIS] (H-KWKSFIKNLTKVLKKVVTTALPALIS-OH; N-terminus and C-terminus assumed)
Peptide MI Alone (bacterial isolates; P. aeruginosa PA24 (Ciprofloxacin section)): 64 µg/mL
Peptide MI Alone (bacterial isolates; S. aureus SA10 (Ciprofloxacin section)): 4 µg/mL
Peptide MI Alone (bacterial isolates; S. aureus SA93 (Ciprofloxacin section)): 2 µg/mL

G K P R P Y S P I P T S P R P I R Y [MBI 31]
Peptide MIC ([1]; S. aureus SA7796, pair Methicillin / MBI 31): 16 µg/mL
Peptide MIC ([1]; S. aureus SA7797, pair Methicillin / MBI 31): 16 µg/mL
Peptide MIC ([1]; S. aureus SA7823, pair Methicillin / MBI 31): 0.5 µg/mL
Peptide MIC ([1]; S. aureus SA7834, pair Methicillin / MBI 31): 32 µg/mL
Peptide MIC ([1]; S. aureus SA7835, pair Methicillin / MBI 31): 16 µg/mL
Peptide MIC [1, 3]: 0.5 µg/mL
Peptide MIC [1, 4]: 0.5 µg/mL
Peptide MIC [1, 5]: 0.5 µg/mL
Peptide MIC [1, 6]: 0.5 µg/mL

I L K K F P F F P F R R K [MBI 11A1CN]
MIC (bacteria; A. calcoaceticus AC002): 16 µg/mL
MIC (bacteria; E. cloacae ECL007): >128 µg/mL
MIC (bacteria; E. coli ECO002): 32 µg/mL
MIC (bacteria; E. faecalis EFS002): 32 µg/mL
MIC (bacteria; E. faecium EFM002): 1 µg/mL
MIC (bacteria; H. influenzae HIN002): >128 µg/mL
MIC (bacteria; K. pneumoniae KP002): >128 µg/mL
MIC (bacteria; P. aeruginosa PA004): >128 µg/mL
MIC (bacteria; P. vulgaris SBPV1): >128 µg/mL
MIC (bacteria; S. aureus SA005): 8 µg/mL
MIC (bacteria; S. epidermidis SE002): 16 µg/mL
MIC (bacteria; S. maltophilia SMA002): >128 µg/mL
MIC (bacteria; S. marcescens SBSM2): >128 µg/mL
MIC (bacteria; S. pneumoniae SBSPN2): >128 µg/mL
Peptide MIC + Tobramycin ([1]; P. aeruginosa PA026): 0.125 µg/mL
Ciprofloxacin MIC + Peptide ([1]; S. aureus SA10): 0.125 µg/mL
Peptide MIC + Ciprofloxacin ([1]; S. aureus SA10): 64 µg/mL
Ciprofloxacin MIC + Peptide ([1]; S. aureus SA25): 0.125 µg/mL
Peptide MIC + Tobramycin ([1]; S. maltophilia SMA030): 64 µg/mL
Tobramycin MIC + Peptide ([1]; S. maltophilia SMA030): 2 µg/mL
FIC ([1]; peptide + Ciprofloxacin, S. aureus SA25): 0.53
FIC [1, 7]: 0.16
FIC [1, 8]: 0.27

I L K K W P W W P W R R [MBI 11G7CN]
Peptide MIC + Piperacillin (bacterial isolates; A. calcoaceticus 3): 2 µg/mL
Peptide MIC Alone (bacterial isolates; A. calcoaceticus 3): 4 µg/mL
Piperacillin MIC + Peptide (bacterial isolates; A. calcoaceticus 3): 4 µg/mL

I L R R W P W W P W R R K [MBI 11B1CN]
MIC (bacteria; A. calcoaceticus AC001): 32 µg/mL
MIC (bacteria; E. cloacae ECL007): >128 µg/mL
MIC (bacteria; E. coli ECO003): 8 µg/mL
MIC (bacteria; E. faecalis EFS004): 8 µg/mL
MIC (bacteria; E. faecium EFM002): 2 µg/mL
MIC (bacteria; K. pneumoniae KP002): 64 µg/mL
MIC (bacteria; P. aeruginosa PA005): >128 µg/mL
MIC (bacteria; S. aureus SA005): 2 µg/mL
MIC (bacteria; S. epidermidis SE001): 2 µg/mL
MIC (bacteria; S. maltophilia SMA001): 64 µg/mL
MIC (bacteria; S. marcescens SMS004): >128 µg/mL
Peptide MIC + Vancomycin ([1]; E. faecalis EFS003): 32 µg/mL
Vancomycin MIC + Peptide ([1]; E. faecalis EFS003): 4 µg/mL
Peptide MIC Alone ([1]; E. faecalis EFS003 (8. Vancomycin)): >128 µg/mL
Peptide MIC + Vancomycin ([1]; E. faecalis EFS006): 0.25 µg/mL
Vancomycin MIC + Peptide ([1]; E. faecalis EFS006): 4 µg/mL
Peptide MIC Alone ([1]; E. faecalis EFS006 (8. Vancomycin)): 128 µg/mL
Peptide MIC + Vancomycin ([1]; E. faecalis EFS010): 8 µg/mL
Vancomycin MIC + Peptide ([1]; E. faecalis EFS010): 1 µg/mL
Peptide MIC Alone ([1]; E. faecalis EFS010 (8. Vancomycin)): 128 µg/mL
Peptide MIC + Vancomycin ([1]; E. faecalis EFS014): 2 µg/mL
Vancomycin MIC + Peptide ([1]; E. faecalis EFS014): 1 µg/mL
Peptide MIC Alone ([1]; E. faecalis EFS014 (8. Vancomycin)): 4 µg/mL
Peptide MIC + Vancomycin ([1]; E. faecium EFM004): 16 µg/mL
Vancomycin MIC + Peptide ([1]; E. faecium EFM004): 0.5 µg/mL
Peptide MIC Alone ([1]; E. faecium EFM004 (8. Vancomycin)): 32 µg/mL
Peptide MIC + Vancomycin ([1]; E. faecium EFM007): 16 µg/mL
Vancomycin MIC + Peptide ([1]; E. faecium EFM007): 4 µg/mL
Peptide MIC Alone ([1]; E. faecium EFM007 (8. Vancomycin)): 64 µg/mL
Peptide MIC + Vancomycin ([1]; E. faecium EFM009): 8 µg/mL
Vancomycin MIC + Peptide ([1]; E. faecium EFM009): 4 µg/mL
Peptide MIC Alone ([1]; E. faecium EFM009 (8. Vancomycin)): 64 µg/mL
FIC ([1]; peptide + Vancomycin, E. faecalis EFS003): 0.63
FIC ([1]; peptide + Vancomycin, E. faecalis EFS006): 0.50
FIC ([1]; peptide + Vancomycin, E. faecalis EFS010): 0.13
FIC ([1]; peptide + Vancomycin, E. faecalis EFS014): 0.51
FIC ([1]; peptide + Vancomycin, E. faecium EFM004): 0.50
FIC ([1]; peptide + Vancomycin, E. faecium EFM007): 0.28
FIC ([1]; peptide + Vancomycin, E. faecium EFM009): 0.25

ILRWPWWPWRRKIMILKKAGS [MBI 11B16CN]
MIC (bacteria; A. calcoaceticus AC002): 4 µg/mL
MIC (bacteria; E. cloacae ECL007): >128 µg/mL
MIC (bacteria; E. coli ECO005): 16 µg/mL
MIC (bacteria; E. faecalis EFS001): 2 µg/mL
MIC (bacteria; K. pneumoniae KP001): 16 µg/mL
MIC (bacteria; P. aeruginosa PA004): >128 µg/mL
MIC (bacteria; S. aureus SA093): 2 µg/mL
MIC (bacteria; S. epidermidis SE010): 4 µg/mL
MIC (bacteria; S. maltophilia SMA002): 32 µg/mL
MIC (bacteria; S. marcescens SMS003): >128 µg/mL
MIC Alone ([2]; A baumannii ABI001, pair Amikacin / MBI 11B16CN): 32 µg/mL
FIC [2, 9]: 0.31
MIC Alone [2, 9]: 32 µg/mL
MIC in combination [2, 9]: 8 µg/mL
FIC [2, 10]: 0.14
MIC Alone [2, 10]: >128 µg/mL
MIC in combination [2, 10]: 32 µg/mL

KWKLFIKKLTPAVKKVLLTGLPALIS [MBI 29F1]
MIC Alone ([2]; S. aureus SA025 MRSA, pair Amikacin / MBI 29F1): 1 µg/mL

R L A R I V V I R V A R [REWH 53A5CN]
Peptide MIC + Tobramycin (bacterial isolates; S. aureus SA014 MRSA): 8 µg/mL
Peptide MIC Alone (bacterial isolates; S. aureus SA014 MRSA): 16 µg/mL
Tobramycin MIC + Peptide (bacterial isolates; S. aureus SA014 MRSA): 0.125 µg/mL
Peptide MIC + Tobramycin (bacterial isolates; S. maltophilia SMA029): 16 µg/mL
Peptide MIC Alone (bacterial isolates; S. maltophilia SMA029): >128 µg/mL
Tobramycin MIC + Peptide (bacterial isolates; S. maltophilia SMA029): 4 µg/mL
Peptide MIC + Tobramycin (bacterial isolates; S. maltophilia SMA030): 32 µg/mL
Peptide MIC Alone (bacterial isolates; S. maltophilia SMA030): >128 µg/mL
Tobramycin MIC + Peptide (bacterial isolates; S. maltophilia SMA030): 0.25 µg/mL
FIC (bacterial isolates; S. aureus SA014 MRSA): 0.50
FIC (bacterial isolates; S. maltophilia SMA029): 0.08
FIC (bacterial isolates; S. maltophilia SMA030): 0.13
Peptide MIC + Tobramycin ([1]; S. maltophilia SMA029): 32 µg/mL
Tobramycin MIC + Peptide ([1]; S. maltophilia SMA029): 0.25 µg/mL
Peptide MIC Alone ([1]; S. maltophilia SMA029 (7. Tobramycin)): >128 µg/mL
Peptide MIC + Tobramycin ([1]; S. maltophilia SMA030): 32 µg/mL
Tobramycin MIC + Peptide ([1]; S. maltophilia SMA030): 0.25 µg/mL
Peptide MIC Alone ([1]; S. maltophilia SMA030 (7. Tobramycin)): >128 µg/mL
FIC [1, 7]: 0.13
FIC [1, 8]: 0.13

Teicoplanin [reference compound]
MIC Alone ([2]; E. gallinarum 97046 VanC, pair Teicoplanin / MBI 26): 1 µg/mL
MIC Alone ([2]; E. gallinarum 97047 VanC, pair Teicoplanin / MBI 26): 8 µg/mL
MIC Alone ([2]; E. gallinarum 97049 VanC, pair Teicoplanin / MBI 26): 2 µg/mL
